Measurements from US12351586B2 (priority 2020, dated 2025).

Legend:
[1] = tested on: HIV-1 mutant strains (K101E, V108I, F227C, M230I in RT gene); experiment: Activity against mutant strains selected by passaging HIV-1 IIIB 30 times in the presence of DK6-1; assay type: cell-based
WT HIV-1 strain (IIIB) = experiment: Anti-HIV activity in MT-4 cells, MTT method, WT HIV-1 strain (IIIB); assay type: cell-based
Excerpt: Etravirine (ETR) was selected as control drug.
Pannecouque et al. Nat. Protoc. […] Methods 20(1988) 309-321.

[2] = tested on: HIV-1 E138K mutant strain; experiment: microbe, parasite or virus in culture; conditions: Human immunodeficiency virus 1, MT4, read-out: EC50 (anti-HIV activity)
[3] = tested on: HIV-1 K103N mutant strain; experiment: Anti-HIV activity in MT-4 cells, MTT method, K103N mutant strain; assay type: cell-based; conditions: Human immunodeficiency virus 1, MT4, read-out: EC50 (anti-HIV activity)
Excerpt: Pannecouque et al. Nat. Protoc.

[4] = tested on: HIV-1 L100I mutant strain; experiment: microbe, parasite or virus in culture; conditions: Human immunodeficiency virus 1, MT4, read-out: EC50 (anti-HIV activity)

## Cc1cn([C@H]2C[C@H](N=[N+]=[N-])[C@@H](CO)O2)c(=O)[nH]c1=O [AZT]
[1]; mutant strains with K101E, V108I, F227C, M230I
  EC50: 1 nM
[1]; selected mutant strains vs HIV-1 IIIB
  fold potent versus own activity against HIV-1 IIIB: about 10 fold
WT HIV-1 strain (IIIB); HIV-1 IIIB wild-type
  EC50: 12.7 nM

## Cc1cc(/C=C/C#N)cc(C)c1Oc1nc(NC2CCN(Cc3ccc(S(N)(=O)=O)cc3)CC2)nc2sccc12 [DK6-1]
[2]
  EC50: < 8 nM
[3]
  EC50: 2.34 nM
[4]
  EC50: < 8 nM
WT HIV-1 strain (IIIB); Human immunodeficiency virus 1, MT4, HIV-1 IIIB wild-type
  EC50: 3.24 nM
